Experiments:
Test in all cases: relative viability (nuclei count vs DMSO), 5 days (fraction); higher = more cells survive
[1] = compound: CO[C@@H]1[C@H](N(C)C(=O)c2ccccc2)C[C@H]2O[C@]1(C)n1c3ccccc3c3c4c(c5c6ccccc6n2c5c31)C(=O)NC4 [Midostaurin] + C[C@]1(O)C[C@@H](c2nc(-c3ccc4ccc(-c5ccccc5)nc4c3)c3c(N)nccn32)C1 [Linsitinib] (partner 1 µM)
Summary of the method: (§1)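 Relative viability equals treated-well nuclei counts divided by vehicle-well nuclei counts. Counts came from 4× images of lung cancer cell lines grown in 1536-well plates for 5 days after pin-tool dosing on the day after seeding. Dosing used one drug alone or a fixed anchor-drug dose plus five library-drug doses (not always all listed) in √10 steps, and values are medians of duplicate plates.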

[2] = compound: CO[C@@H]1[C@H](N(C)C(=O)c2ccccc2)C[C@H]2O[C@]1(C)n1c3ccccc3c3c4c(c5c6ccccc6n2c5c31)C(=O)NC4 [Midostaurin] + CC(C)C[C@H](NC(=O)[C@H](Cc1ccccc1)NC(=O)c1cnccn1)B(O)O [Bortezomib] (partner 0.002 µM)
Summary of the method: as §1

[3] = compound: CO[C@@H]1[C@H](N(C)C(=O)c2ccccc2)C[C@H]2O[C@]1(C)n1c3ccccc3c3c4c(c5c6ccccc6n2c5c31)C(=O)NC4 [Midostaurin] + CC(=O)c1c(C)c2cnc(Nc3ccc(N4CCNCC4)cn3)nc2n(C2CCCC2)c1=O [Palbociclib] (partner 0.5 µM)
Summary of the method: as §1

[4] = compound: COc1cc(-c2nn([C@H]3CC[C@H](N4CCN(C(C)=O)CC4)CC3)c3ncnc(N)c23)ccc1NC(=O)c1cc2ccccc2n1C + O=C(CCCCCCC(=O)Nc1ccccc1)NO [Vorinostat] (partner 1 µM)
Summary of the method: as §1

[5] = compound: COc1cc(-c2nn([C@H]3CC[C@H](N4CCN(C(C)=O)CC4)CC3)c3ncnc(N)c23)ccc1NC(=O)c1cc2ccccc2n1C + Cc1nc(Nc2ncc(C(=O)Nc3c(C)cccc3Cl)s2)cc(N2CCN(CCO)CC2)n1 [Dasatinib] (partner 0.075 µM)
Summary of the method: as §1

Cell Line	relative viability ([1]; first compound 0.01 µM)	relative viability ([1]; first compound 0.03162 µM)	relative viability ([1]; first compound 0.1 µM)	relative viability ([1]; first compound 0.3162 µM)	relative viability ([2]; first compound 0.01 µM)	relative viability ([2]; first compound 0.03162 µM)	relative viability ([2]; first compound 0.1 µM)	relative viability ([2]; first compound 0.3162 µM)	relative viability ([3]; first compound 0.01 µM)	relative viability ([3]; first compound 0.03162 µM)	relative viability ([3]; first compound 0.1 µM)	relative viability ([3]; first compound 0.3162 µM)	relative viability ([4]; first compound 0.0128 µM)	relative viability ([4]; first compound 0.04048 µM)	relative viability ([4]; first compound 0.128 µM)	relative viability ([4]; first compound 1.28 µM)	relative viability ([5]; first compound 0.0128 µM)	relative viability ([5]; first compound 0.04048 µM)	relative viability ([5]; first compound 0.128 µM)	relative viability ([5]; first compound 1.28 µM)
NCI-H2228	0.731	0.879	0.828	0.679	1.21	1.19	1	0.942	0.569	0.954	0.842	0.845	0.869	0.609	0.568	0.527	0.474	0.436	0.52	0.456
NCI-H2347	0.896	0.837	0.899	0.927	0.842	0.95	0.956	0.976	0.442	0.449	0.395	0.404	0.658	0.499	0.521	0.543	0.262	–	0.333	0.308
NCI-H2405	0.965	1.01	–	0.853	1.02	0.985	0.979	1.01	0.534	0.575	0.521	0.51	1.01	0.886	0.834	0.374	0.252	0.216	0.192	0.179
NCI-H3122	0.913	0.987	1.13	1.05	0.991	0.968	1.04	1.02	0.156	0.241	0.197	0.229	1.49	–	0.889	0.861	0.854	–	0.775	0.809
PC-3 [JPC-3]	0.913	0.862	0.925	0.934	0.891	0.734	0.683	0.85	0.561	0.554	0.546	0.602	0.667	0.989	0.808	1.01	0.985	0.881	0.922	1.03
PC-14	0.995	0.943	0.996	0.975	0.839	0.713	0.811	0.815	0.487	0.643	0.485	0.369	0.931	0.823	0.653	0.716	0.243	0.265	0.282	0.278
RERF-LC-KJ	0.945	0.868	0.89	0.926	1.16	1.18	1.16	1.23	0.993	1.08	1.13	1.02	0.754	0.737	0.75	0.619	0.816	0.76	0.772	0.794
SK-LU-1	1.11	0.961	1.06	0.664	1.15	1.31	1.36	1.19	0.404	0.409	0.379	0.399	0.797	0.763	0.765	0.724	0.201	0.236	0.211	0.243
SW 1573	0.747	0.848	0.979	1.02	0.966	0.988	1.15	1.05	0.422	0.504	0.424	0.247	0.805	0.735	0.817	0.723	0.496	0.743	0.627	0.612
